Counter-ions that a name gives are not always drawn. Residues, ends and D or L forms follow the SMILES beside them. *: point of attachment. Cbz = O=C(OCc1ccccc1)*; CH2F = FC*

Test [1] has as its system human myeloid leukaemia cell line HL-60. Put plainly: Induction of apoptosis in HL-60 cells, flow cytometry (hypodiploid DNA). It is filed as cell-based. The conditions noted are these: 30, 20, 15, 10 μM methadone, 24 h and 48 h. (In general: Flow cytometry measures light scatter and fluorescence of single cells or particles in a stream.)
The test system of test [2] is human glioblastoma cell line A172. Put plainly: Induction of apoptosis in A172 glioblastoma cells, flow cytometry. It is filed as cell-based.
Test [3] has as its system human lymphoblastic leukaemia T-cell line CEM. In words: Induction of apoptosis in CEM cells, flow cytometry (hypodiploid DNA). It is filed as cell-based. The conditions noted are these: 30, 20, 15, 10 μM methadone, 24 h and 48 h.
Test [4] concerns CD95-resistant leukaemia cells CEM^CD95R. In words: Western blot analysis in CEM^CD95R cells. It is filed as cell-based, human. The conditions noted are these: 20, 15 μM methadone, 24 h and 48 h. (In general: A western blot detects proteins with antibodies after separation by electrophoresis.)
Test [5] has as its system HL-60 leukaemia cells. Put plainly: Western blot analysis in HL-60 cells. It is filed as cell-based, human. The conditions noted are these: 20, 15 μM methadone, 24 h and 48 h.
Test [6] relates to CD95-resistant leukaemia cells CEM^CD95R. Put plainly: Induction of apoptosis in CD95-resistant CEM cells. It is filed as cell-based, human. To be noted: 30, 20, 15 μM methadone, 24 h and 48 h.
Test [7] relates to leukaemia cells. Put plainly: Western blot analysis in leukaemia cells (caspase-8, Bax, CD95). It is filed as cell-based, human. The source says: Western blot analyses were done as described (Friesen et al. 2004, Friesen et al. 2003). Immunodetection of PARP, caspase-3, caspase-9, caspase-8, XIAP, CD95, CD95-L, Bax, Bcl-xL and β-actin was done using rabbit anti-PARP polyclonal antibody (1:5000, Roche), mouse-anti-caspase-3 monoclonal antibody (1:1000, Cell-Signalling), mouse-anti-caspase-8 monoclonal antibody (1:1000, Cell-Signalling), rabbit- anti-active-caspase-9 polyclonal antibody (1:1000, Cell-Signalling), mouse-anti-XIAP monoclonal antibody (1:1000, Transduction-Laboratories, Lexington, Ky.), mouse-anti-Fas (anti-CD95) monoclonal antibody (1:1000, Transduction-Laboratories), mouse-anti-Fas ligand (anti-CD95-ligand) monoclonal antibody (1:250, BD, Pharmingen), rabbit-anti-Bax polyclonal antibody (1:250, Oncogene, Cambridge), rabbit-anti-Bcl-XS/L. polyclonal antibody (1:1000, Santa-Cruz-Biotechnology, Santa-Cruz, Calif.), rabbit-anti-p21 polyclonal antibody (1:1000, Santa-Cruz), and mouse anti-β-actin monoclonal antibody (Sigma). Peroxidase-conjugated goat-anti-mouse IgG or peroxidase-conjugated goat-anti-rabbit IgG (1:5000, Santa-Cruz) as secondary antibody were used for the enhanced chemoluminescence system (ECL, Amersham-Pharmacia, Freiburg, Germany). Equal protein loading was controlled by β-actin detection.

For test [8], the system named is doxorubicin-resistant leukaemia cells CEM^DoxoR. Put plainly: Western blot analysis in CEM^DoxoR cells. It is filed as cell-based, human. To be noted: 20, 15 μM methadone, 24 h and 48 h.
Test [9] has as its system CEM leukaemia cells. In words: Western blot analysis in CEM cells. It is filed as cell-based, human. The conditions noted are these: 20, 15 μM methadone, 24 h and 48 h.
Test [10] relates to B-ALL (B-Cell lymphatic leukaemia) cells. In words: Induction of apoptosis in B-ALL cells isolated from patients ex vivo. It is filed as cell-based, human. The conditions noted are these: B-ALL patient cells; 10 μM methadone; 72 h.
Test [11] deals with doxorubicin-resistant CEM leukaemia cells (CEM^DoxoR). In words: Induction of apoptosis in doxorubicin-resistant CEM cells. It is filed as cell-based, human. The conditions noted are these: 30, 20, 15 μM methadone, 24 h and 48 h.
Test [12] relates to Human acute myeloid leukaemia HL-60 cell line. Put plainly: Induction of apoptosis in HL-60 cell line (5000 cells/100 μl), long incubation, flow cytometry. It is filed as cell-based.
In test [13] the test system is CEM cells. In words: Inhibition of methadone induced apoptosis by zVAD.fmk in CEM cells. It is filed as cell-based, human. The conditions noted are these: 50 μM zVAD.fmk, preincubated 1 h before methadone.
Test [14] deals with HL-60 cells. In words: Inhibition of methadone induced apoptosis by zVAD.fmk in HL-60 cells. To be noted: 50 μM zVAD.fmk, preincubated 1 h before methadone. It is filed as cell-based, human.
The mark [15] stands for this setting: 1 μg/mL methadone in addition of 0.1 μg/mL doxorubicin, 72 h.
[16] abbreviates: leukaemia cells after methadone treatment.

With `CCC(=O)C(CC(C)N(C)C)(c1ccccc1)c1ccccc1` (racemic) [methadone, D, L-methadone hydrochloride], the induction of apoptosis entry in [1], in [3], in [6] and in test [11] was “strong induction of apoptosis” throughout. Moreover, the “apoptotic effect of the combination with doxorubicin” value in [2] (setting [15]) is reported as “strong apoptotic effect”. For the same compound, in [2] (setting [15]), the synergy with doxorubicin result is “synergistic effects”. Also, the “dead cells (specific cell death)” value in [2] (20 μg/mL methadone, 120 h) is listed as “more than 20%”; in [2] (20 μg/mL methadone, 168 h), “more than 80%”; in test [2] (30 μg/mL methadone, 120 h), “more than 85%”; in test [2] (30 μg/mL methadone, 168 h), roughly 100%. Besides, the “down regulation of Bcl-xL” value in test [4], in test [5], in test [8] and in test [9] was “strong down regulation” throughout. Also, the “down regulation of XIAP” value in test [4], in [5], in [8] and in test [9] was “strong down regulation” throughout. The “Activation of caspase-8” value in test [7] (setting [16]) was “not found”. In addition, the “Up regulation of Bax” value in [7] (setting [16]) is on record as “not found”. Besides, the “up regulation of death-inducing ligands and death-inducing receptors such as CD95” value in [7] (leukaemia cells after methadone treatment (data not shown)) is “not found”. Moreover, in test [10], the “apoptosis, cells” value is on record as “over 80%”.
With `CN1CC[C@]23c4c5ccc(O)c4O[C@H]2[C@@H](O)C=C[C@H]3[C@H]1C5` [morphine, Morphine], the “apoptosis, cells” value in [12] (HL-60, first study, 40 μg/mL morphine, 144 h) is reported as 40%; in test [12] (HL-60, second study, 1 μg/mL morphine, 168 h) it was “more than 50%”; in [12] (HL-60, third study, 1 μg/mL morphine in combination with 0.001 μg/mL doxorubicin, 168 h) it was 50%.
For `CC(C)[C@H](NC(=O)OCc1ccccc1)C(=O)N[C@@H](C)C(=O)N[C@@H](CC(=O)O)C(=O)CF` [zVAD.fmk, benzoyl carbonyl-Val-Ala-Asp-fluoromethyl ketone] (Cbz-Val-Ala-Asp-CH2F), the “inhibition of methadone-induced apoptosis” value in [13] and in [14] was “almost completely inhibited” in each case.
